One data set deals with cultured cells. The data set is described as follows: Cell toxicity to cultured cells. The data set is classed as cell-based. Conditions: concentration of 10 mcg/ml.
A short description of a further data set: Solubility in solvents. The format is physicochemical.
Another data set concerns mice. Description: Acute toxicity in mice. The data set is classed as in vivo. The conditions noted are these: 250 mg/kg, intraperitoneal injection. The text has this: As known substances which inhibit the esterase, there may be mentioned paradoxon and di-isopropyl fluorophosphate etc., which are highly toxic compounds. […] In these respects, it also can be confirmed that esterastin is a novel substance.

The subject of data set [1] is antibody-forming cells per spleen. Description: Effect on formation of humoral antibody (Jerne plaque technique, SRBC-immunized mice). The format is in vivo, dd/Y mice. Conditions: for Number of antibody-forming cells per spleen (± S.E.): 10^8 SRBC i.v., day 4. The method, then:
Groups of dd/Y mice (5 female mice per group, 6-8 weeks old) were immunized with 10^8 red blood cells of sheep as the anitgen (in the form of a suspension in physiological saline solution) by intravenous injection to develop the immunity. At the same time, 1 mg, 250 mcg, 62.5 mcg or 15.6 mcg of esterastin (in the form of a suspension in 1% DMSO-saline) per mouse were intraperitoneally injected into the separate groups of mice, respectively. On the 4 days after the immunization, the mice treated were sacrificed, spleen was teased and the number of the antibody-forming cells present in each mouse spleen was enumerated according to the method of Jerne (see N. K. Jerne, A. A. Nordin and C. Henry: "The agar plaque technique for recognizing antibody-producing cells. Cell-bound Antibodies." ed. B. Amos and H. Koprowski pp. 109-122, Wister Institute Press. Philadelphia, 1963).

The next data set deals with D.T.H. to SRBC in mice. Description: Effect on cell-mediated immunity (Delayed Type Hypersensitivity to SRBC, footpad swelling). Conditions: for Increase of footpad thickness: 24 hours after eliciting injection of 10^8 SRBC. The data set is classed as in vivo, dd/Y mice. As to the method: Effect of esterastin on the cellular immunity was tested according to a known Delayed Type Hypersensitivity (D.T.H.) technique (see P. H. Lagrange, G. B. Mackaness and T. E. Mille: "J. Exp. Med.", 139, 1529-1539 (1974)) using mice immunized with sheep red blood cells as the antigen.
Thus, 10^8 sheep red blood cells suspended in 0.05 ml of physiological saline solution were immunized by subcutaneous injection to the one side of dd/Y mice hind footpad (5 mice per group, female, 6-weeks old) to establish delayed-type hypersensitivity. At the same time as this immunization, 1 mg/mouse, 250 mcg/mouse, 62.5 mcg/mouse or 15.6 mcg/mouse of esterastin were intraperitoneally injected to each test mouse. Four days later, 10^8 sheep rod blood cells were injected subcutaneously into the other side of each test mouse footpad for elicitation of D.T.H. response. 24 Hours after the eliciting injection, the thickness (in mm) of the footpad was measured to evaluate the degree of the swelling in the footpad which received the eliciting injection of sheep rod blood cells. The extent of the swelling in the footpad serves as a measure to estimate the cellular immunity involved.

The target of a further data set is esterase of pig pancreas. Description: Inhibition of esterase (decomposition of p-nitrophenyl acetate by crude lipase preparation). The data set is classed as biochemical.

Molecules are shown by their SMILES. In brackets after ≈: the same amount, converted by molar mass. Entries after “also recorded” stand apart in the source; their conditions may differ.

This is an account of results in patent US4242453A, “Cultivating streptomyces to produce an esterase inhibitor” (Zaidan Hojin Biseibutsu Kagaku Kenkyu Kai, priority 1977, dated 1980).

Experimental for esterase of pig pancreas: Thus, a commercially available, crude lipase preparation obtained from pig pancreas is dissolved to a concentration of 0.5% (by weight) in a 0.05 M phosphate buffered solution (pH 7.0) containing 0.2% "Triton X-100" (a trade name of an emulsifier consisting of a polyethyleneglycol alkylphenylether, a product of Rohm & Haas Co., U.S.A.). 0.03 ml of this lipase solution, 2.92 ml of 0.05 M phosphate buffered solution (pH 7.0) and 0.025 ml of a solution containing an esterastin sample to be assayed are mixed together, and the resulting mixture (2.975 ml) is warmed at 20° C. for 3 minutes and then admixed with 0.025 ml of a solution containing 10 mg/ml of p-nitrophenyl acetate in methanol to start the reaction of p-nitrophenyl acetate with lipase. After the reaction was effected at 20° C. for 30 minutes, absorbance (a) at 400 nm of the resulting reaction solution is measured. On the other hand, absorbance (b) at 400 nm of a control reaction solution obtained from the blank test using the 0.05 M phosphate buffered solution containing no esterastin is measured in the same way as above. Degree (%) of inhibition to esterase is calculated according to the following equation: [formula]

With `CCCCCC=CCC=CCC(CC1OC(=O)C1CCCCCC)OC(=O)C(CC(N)=O)NC(C)=O` (stereo not shown) [esterastin], the “cell toxicity to the cultured cells” value in the data set on cultured cells is reported as “no cell toxicity”. The “solubility in petroleum ether and hexane” value in the data set “Solubility in solvents” (petroleum ether and hexane) was “sparingly soluble; also recorded: substantially insoluble”. Moreover, in the data set “Solubility in solvents” (pyridine, dimethylsulfoxide, methanol, ethanol, acetone, ethyl acetate, butyl acetate, chloroform and benzene), the “solubility in organic solvents” value was “readily soluble”. Moreover, the solubility in water entry in “Solubility in solvents” (water) is given as “sparingly soluble; also recorded: substantially insoluble”. Besides, the acute toxicity entry in the data set with mice is reported as “no toxicity was observed at all; also recorded: does not give any sympton of toxicity at all”. Besides, the “Number of antibody-forming cells per spleen (± S.E.)” value in data set [1] (1 mg per mouse i.p.) is on record as 45,300 ± 3,300; in data set [1] (15.6 mcg per mouse i.p.), 173,000 ± 19,600; in data set [1] (62.5 mcg per mouse i.p.), 55,000 ± 5,700; in data set [1] (250 mcg per mouse i.p.), 52,000 ± 2,300. Besides, the “effect on number of the antibody forming cells (in words)” value in data set [1] (1 mg to 62.5 mcg to mice) is given as “remarkably reduces the number of the antibody forming cells”. Also, the “effect on development of D.T.H. (in words)” value in the data set with D.T.H. to SRBC in mice (1 mg to 250 mcg to mice) is “remarkably suppresses the development of D.T.H”. Further, the “Increase of footpad thickness” value in the data set on D.T.H. to SRBC in mice (1 mg/mouse i.p.) amounted to 3.8 × 0.1 mm; in the data set with D.T.H. to SRBC in mice (62.5 mcg/mouse i.p.), 6.2 × 0.1 mm; in the data set with D.T.H. to SRBC in mice (250 mcg/mouse i.p.), 3.0 × 0.1 mm. The IC50 on esterase of pig pancreas (p-nitrophenyl acetate as the substrate, read-out: concentration giving 50% inhibition of esterase) turned out to be 0.041 nM. Further, the “ID50, dose giving 50% inhibition to esterase” value on esterase of pig pancreas (p-nitrophenyl acetate substrate, pH 7.0, 20° C., 30 minutes) was 0.2 ng/mL (≈ 0.395 nM).
